According to patent publication US10590143B2, “Herbicidally active (alkynyl-phenyl)-substituted cyclic dione compounds and derivatives thereof” (Syngenta Limited, priority 2013, dated 2020):
Like-named read-outs stand apart in the source and are kept apart here.

Assays:
Format in all cases: in vivo
[1] = test system: Abutilon theophrasti (ABUTH); assay: Biological Example 1 glasshouse assay for herbicidal activity; details: 312 h, 13 days after application, read-out: percentage phytotoxicity ABUTH
Method in brief: (§1)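 Sow seeds in pots of standard sandy soil; grow in glasshouse (24/16 °C, 14 h light, 65% humidity). Spray herbicide in acetone/water with 0.5% Tween 20 at day 1 or day 8. Water twice daily and score damage visually at 13 days.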

[2] = test system: Zea mays (ZEAMX, corn, maize, e.g. volunteer corn); assay: as above; details: Zea mays, 312 h, 13 days after application, read-out: percentage phytotoxicity ZEAMX
Method in brief: as §1

[3] = test system: Amaranthus retroflexus (AMARE); assay: as above; details: Amaranthus retroflexus, 312 h, 13 days after application, read-out: percentage phytotoxicity AMARE
Method in brief: as §1

[4] = test system: Echinochloa crus-galli (ECHCG); assay: as above; details: Echinochloa crus-galli, 312 h, 13 days after application, read-out: percentage phytotoxicity ECHCG
Method in brief: as §1

Setaria faberi (SETFA) = assay: as above; details: 312 h, 13 days after application, read-out: percentage phytotoxicity SETFA
Method in brief: as §1

[5] = test system: Alopecurus myosuroides (ALOMY); assay: as above; details: 312 h, 13 days after application, read-out: percentage phytotoxicity ALOMY
Method in brief: as §1

[6] = test system: Brassica napus (BRSNN, rape); assay: Biological Example 2 glasshouse assay for herbicidal activity; details: Brassica napus, 360 h, post-emergence, 14 or 15 DAA, 0.2% v/v X-77, read-out: percentage phytotoxicity BRSNN
Experimental: (§2) Seeds of a variety of monocotyledonous and dicotyledonous test plants are sown in standard soil in pots. The plants are cultivated for one day (for pre-emergence) or for about 12 days (range=10-13 days) (for post-emergence) under controlled conditions in a glasshouse (warm climate species at 24/18° C., cool climate species at 20/16° C., both at day/night; 16 hours light; 65% humidity).
(§3) An “instant formulation”, known as the “IF50”, containing 50 g/litre (i.e. 5% w/v) of the “technical” (i.e. unformulated) active ingredient is prepared by dissolving the active ingredient in a mixture of organic solvents and emulsifier, details of which are provided in the Table below. This IF50 is then mixed with a small, variable amount of acetone to aid dissolution, before addition of a 0.2% v/v aqueous solution of the adjuvant X-77 (which is a mixture of alkyl aryl polyoxyethylene glycols and free fatty acids in isopropanol, CAS Registry number 11097-66-8), as the aqueous diluent, to form an aqueous spray solution which contains a predetermined concentration of the active ingredient (which varies depending on the application rate of the active ingredient to the plants) and 0.2% v/v of the adjuvant X-77. This aqueous spray solution is then sprayed onto the plants, after one day's cultivation (for pre-emergence) or after about 12 days' cultivation (for post-emergence).
(§4) The test plants are then grown on, in a glasshouse (greenhouse) under controlled conditions (at either 24/18° C. or 20/16° C. (day/night) as mentioned above; 16 hours light; 65% humidity) and are watered twice daily. Either 14 or 15 days after application of the herbicide (14 or 15 DAA) (for post-emergence), or 20 days after application of the herbicide (20 DAA) (for pre-emergence), the test plants are evaluated visually, and an assessed percentage phytotoxicity score is given for each herbicidal application on each plant species (where 100%=total damage to plant; 0%=no damage to plant).
(§5) Some of the typical test plants are as follows: • Cool climate crop plants: Triticum aestivum (TRZAW, winter wheat), Brassica napus (BRSNN, rape, also called oilseed rape or rapeseed), Beta vulgaris (BEAVA, sugarbeet). • Warm climate crop plants: Glycine max (GLXMA, soybean). • Cool climate (“cool season”) grassy monocotyledonous weeds: Alopecurus myosuroides (ALOMY), Avena fatua (AVEFA), Lolium perenne (LOLPE), Poa annua (POAAN), Bromus tectorum (BROTE). • Warm climate (“warm season”) grassy monocotyledonous weeds: Setaria faberi (SETFA), SORVU (Sorghum bicolor (L.) Moench ssp. Bicolor, or Sorghum vulgare Pers.), Digitaria sanguinalis (DIGSA), Echinochloa crus-galli (ECHCG), Brachiaria plantaginea (BRAPL); Zea mays (ZEAMX, corn, maize, e.g. volunteer corn).

[7] = test system: SORVU (Sorghum bicolor (L.) Moench ssp. Bicolor, or Sorghum vulgare Pers.); assay: as above; details: post-emergence, 360 h, 14 or 15 DAA, 0.2% v/v X-77, read-out: percentage phytotoxicity SORVU
Experimental: as §2, §3, §4, §5

| Structure (SMILES) | pest or weed control at 30 g/ha ([1]; post-emergence, post-emergence) [%] | pest or weed control at 250 g/ha ([1]; post-emergence, post-emergence) [%] | pest or weed control at 30 g/ha ([1]; pre-emergence, pre-emergence) [%] | pest or weed control at 250 g/ha ([1]; pre-emergence, pre-emergence) [%] | pest or weed control at 30 g/ha ([2]; post-emergence, post-emergence) [%] | pest or weed control at 250 g/ha ([2]; post-emergence, post-emergence) [%] | pest or weed control at 30 g/ha ([2]; pre-emergence, pre-emergence) [%] | pest or weed control at 250 g/ha ([2]; pre-emergence, pre-emergence) [%] | pest or weed control at 30 g/ha ([3]; post-emergence, post-emergence) [%] | pest or weed control at 250 g/ha ([3]; post-emergence, post-emergence) [%] | pest or weed control at 30 g/ha ([3]; pre-emergence, pre-emergence) [%] | pest or weed control at 250 g/ha ([3]; pre-emergence, pre-emergence) [%] | pest or weed control at 30 g/ha ([4]; post-emergence, post-emergence) [%] | pest or weed control at 250 g/ha ([4]; post-emergence, post-emergence) [%] | pest or weed control at 30 g/ha ([4]; pre-emergence, pre-emergence) [%] | pest or weed control at 250 g/ha ([4]; pre-emergence, pre-emergence) [%] | pest or weed control at 30 g/ha (Setaria faberi (SETFA); post-emergence, post-emergence) [%] | pest or weed control at 250 g/ha (Setaria faberi (SETFA); post-emergence, post-emergence) [%] | pest or weed control at 30 g/ha (Setaria faberi (SETFA); pre-emergence, pre-emergence) [%] | pest or weed control at 250 g/ha (Setaria faberi (SETFA); pre-emergence, pre-emergence) [%] | further results |
| --- | --- | --- | --- | --- | --- | --- | --- | --- | --- | --- | --- | --- | --- | --- | --- | --- | --- | --- | --- | --- | --- |
| CC#Cc1cc(F)c(C2C(=O)C3CCC(C3)C2=O)c(OC(F)F)c1 (centres unmarked) [Compound A7] | 0 | 70 | 20 | 30 | 80 | 100 | 80 | 100 | 50 | 60 | 40 | 70 | 90 | 100 | 60 | 100 | 70 | 90 | 50 | 70 | pest or weed control at 30 g/ha ([5]; post-emergence): 60%; pest or weed control at 250 g/ha ([5]; post-emergence): 90%; pest or weed control at 30 g/ha ([5]; pre-emergence): 60%; pest or weed control at 250 g/ha ([5]; pre-emergence): 100%; plant injury at 30 g/ha [6]: 30%; plant injury at 125 g/ha ([6]; 125 g/ha): 50%; plant injury at 250 g/ha [6]: 60%; pest or weed control at 30 g/ha [7]: 50%; pest or weed control at 125 g/ha ([7]; 125 g/ha): 90%; pest or weed control at 250 g/ha [7]: 100% |
| CC#Cc1cc(F)c(C2=C(OC(=O)C(C)(C)C)C3CCC(C3)C2=O)c(OC)c1 (centres unmarked) [Compound P1] | 0 | 80 | 10 | 30 | 100 | 100 | 90 | 100 | 10 | 40 | 50 | 70 | 100 | 100 | 90 | 100 | 80 | 100 | 40 | 80 | pest or weed control at 8 g/ha ([1]; post-emergence, post-emergence): 0%; pest or weed control at 8 g/ha ([2]; post-emergence, post-emergence): 100%; pest or weed control at 8 g/ha ([3]; post-emergence, post-emergence): 0%; pest or weed control at 8 g/ha ([4]; post-emergence, post-emergence): 80%; pest or weed control at 8 g/ha (Setaria faberi (SETFA); post-emergence, post-emergence): 70%; pest or weed control at 8 g/ha ([5]; post-emergence): 60%; pest or weed control at 30 g/ha ([5]; post-emergence): 90%; pest or weed control at 250 g/ha ([5]; post-emergence): 100%; pest or weed control at 30 g/ha ([5]; pre-emergence): 70%; pest or weed control at 250 g/ha ([5]; pre-emergence): 100%; plant injury at 30 g/ha [6]: 10%; plant injury at 250 g/ha [6]: 80%; pest or weed control at 30 g/ha [7]: 100%; pest or weed control at 250 g/ha [7]: 100% |
| CC#Cc1cc(F)c(C2=C(OC(=O)OC(C)C)C3CCC(C3)C2=O)c(OC)c1 (centres unmarked) [Compound P3] | 10 | 80 | 0 | 10 | 100 | 100 | 80 | 100 | 0 | 40 | 30 | 60 | 100 | 100 | 80 | 100 | 80 | 100 | 20 | 80 | pest or weed control at 8 g/ha ([1]; post-emergence, post-emergence): 10%; pest or weed control at 8 g/ha ([2]; post-emergence, post-emergence): 90%; pest or weed control at 8 g/ha ([3]; post-emergence, post-emergence): 0%; pest or weed control at 8 g/ha ([4]; post-emergence, post-emergence): 80%; pest or weed control at 8 g/ha (Setaria faberi (SETFA); post-emergence, post-emergence): 60%; pest or weed control at 8 g/ha ([5]; post-emergence): 60%; pest or weed control at 30 g/ha ([5]; post-emergence): 80%; pest or weed control at 250 g/ha ([5]; post-emergence): 100%; pest or weed control at 30 g/ha ([5]; pre-emergence): 70%; pest or weed control at 250 g/ha ([5]; pre-emergence): 100%; plant injury at 30 g/ha [6]: 10%; plant injury at 250 g/ha [6]: 80%; pest or weed control at 30 g/ha [7]: 100%; pest or weed control at 250 g/ha [7]: 100% |
